Data reported in patent US20230416245A1, “ADENOSINE ANALOGS FOR THE TREATMENT OF DISEASE” (BIOINTERVENE, INC., priority 2020, published 2023).
pEC50, pKi: −log10 of the molar value.

How the values were obtained:
[1] = target: human adenosine A3 receptor (Homo sapiens (Human), UniProt P0DMS8); experiment: Adenosine receptor binding assay ([125I]-AB-MECA competition); conditions: inhibition of 0.15 nM [125I]-AB-MECA binding, membranes of cells expressing human A3 receptor; read-out: hA3 Ki: Ki
From the text: Example 30: Adenosine Receptor Binding Assay
Materials and Reference Compounds: [^125I]-AB-MECA and [^3H]CCPA are both obtained from Amersham Biosciences (Little Chalfont, UK). IB-MECA are obtained from Tocris (Bristol, UK) and N6-cyclopentyl adenosine (CPA) is obtained from Sigma-Alrich (Poole, UK). Cell culture media, G418 and hygromycin are obtained from Invitrogen (Paisley, UK). Fetal calf serum is obtained from Perbio Science (Cheshire, UK). All other reagents are obtained from Fisher Chemicals (Loughborough, UK).
The method followed is that of Yates L, Clark J H, Martin T J, James S, Broadley K J, Kidd E J. Radioligand binding and functional responses of ligands for human recombinant adenosine A3 receptors. Auton Autacoid Pharmacol. 2006; 26(2):191-200. Cells stably transfected with the human adenosine A3 or A1 receptor are grown in Dulbecco's modified Eagles medium with nutrient mixture F12 containing NaHCO3 and Glutamax. Media is supplemented with 10% fetal calf serum, geneticin (G418; 0.67 mg/mL), hygromycin (500 μg/mL) and adenosine deaminase (1 U/mL). Cells are maintained at 37° C. with 5% CO2 in air. Cells are harvested and homogenized in ice-cold Tris buffer [50 mM Tris, 150 mM NaCl, 1 mM ethylenediaminetetraacetic acid (EDTA), pH 7.4] supplemented with the peptidase inhibitors, 4-(2-aminoethyl)benzenesulfonylfluoride (1 mM) and bacitracin (0.1 mg/mL), using a Polytron homogenizer (3×10 s bursts). The homogenate was spun for 10 min (4° C.) at 500 g. The supernatant is retained and the pellet is re-suspended in the buffer, homogenized and spun as above. The combined supernatants are centrifuged for 15 min (4° C.) at 48,000 g. The resultant pellet is re-suspended in the buffer and centrifuged for a second time at 48,000 g. The membrane pellet is then suspended in Tris buffer containing no peptidase inhibitors or adenosine deaminase and stored at −80° C. at a protein concentration of 1 mg/mL.
Binding Assays: Radioligand-binding assays were performed using the adenosine A3 receptor agonist [^125I]-AB-MECA and the A1 receptor agonist [^3H]CCPA. Binding assays were conducted in a total volume of 100 μL containing a 50 mM Tris, pH 7.4 buffer with or without 10 mM MgCl2, 20 μg membranes and either 0.15 nM [^125I]-AB-MECA (for the A3 receptor) or 1 nM [^3H]CCPA (for the A1 receptor). Assays were conducted at room temperature for 60 min (A1 receptor) or 120 min (A3 receptor) and terminated by the addition of 2 ml of ice-cold wash buffer (50 mM Tris, pH 7.4 with or without 10 mM MgCl2) and rapid filtration over 0.03% polyethylenimine-treated Whatman GF/C filters using a Brandel cell harvester (Semat International Ltd., St Albans, UK). Filters were then washed three times with 2 ml of ice-cold buffer. The filter-bound radioactivity were counted using a Compugamma counter (LKB Wallac, Turku, Finland). Competition experiments were performed to investigate the ability of reference compounds and embodiments of the invention to inhibit [^125I]-AB-MECA binding. Non-specific binding were determined using the respective compound at its highest concentration.
Data Analysis: The Kd and Bmax values for binding data were calculated based upon the molar amounts of bound and free [^125I]-AB-MECA. […] IC50 and Ki values and Hill slopes for inhibition of the radioligand binding by the compounds of the invention were calculated from the ligand competition curves using the Excel spreadsheet and the Kd value calculated for either [^125I]-AB-MECA or [^3H]CCPA. The results were expressed as a percent of control specific binding and as a percent inhibition of control specific binding obtained in the presence of the compounds of the invention. The IC50 values (concentration causing a half-maximal inhibition of control specific binding) and Hill coefficients (nH) were determined by non-linear regression analysis of the competition curves generated with mean replicate values using Hill equation curve fitting: […]

ADORA3 = ADORA3 (Homo sapiens (Human), UniProt P0DMS8); experiment: Intracellular calcium release assay (FLIPR); format: cell-based; conditions: for pEC50: CHO-K1 cells, Fluo-4, top concentration 10 μM, read-out: Cell Calcium Assay EC50; for Cell Calcium Efficacy (%): percentage of the response to NECA
Sequence of ADORA3 (P0DMS8 whole entry): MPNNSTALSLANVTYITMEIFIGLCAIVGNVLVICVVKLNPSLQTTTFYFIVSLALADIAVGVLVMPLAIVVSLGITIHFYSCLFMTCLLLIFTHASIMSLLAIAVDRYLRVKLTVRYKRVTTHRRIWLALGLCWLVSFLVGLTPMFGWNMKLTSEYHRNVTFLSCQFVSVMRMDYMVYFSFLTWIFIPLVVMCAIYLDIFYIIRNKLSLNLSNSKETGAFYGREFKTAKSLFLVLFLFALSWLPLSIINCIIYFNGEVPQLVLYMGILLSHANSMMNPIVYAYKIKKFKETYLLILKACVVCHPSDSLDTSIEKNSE
Protocol: Example 32: Intracellular Calcium Release Assay
Cell Culture: The table below lists the cell lines used that stably express the 4 subtypes of adenosine receptors, along with the growth medium used for each:
For experiments with the ADORA1- and ADORA3-expressing cells, the medium was aspirated and the cells washed twice with 10 mL DPBS. Two mL of trypsin was added and incubated at 37° C. for 1 minute. Then 10 mL of platting media was added to terminate the digestion and 1 mL of the solution was taken out for cell counting. ADORA2A- and ADORA2B-expressing cells were thawed rapidly in a 37° C. water bath. Cell suspensions were transferred to 50 mL conical tubes. Plating media was added to the 10 mL mark and then 1 mL taken out for cell counting. The 50 mL tubes containing the various types of cells were centrifuged at 1000 g. Then the supernatants were aspirated, being careful not to aspirate the cells. The cell pellets were resuspended in 3-5 mL platting media, then 0.5 mL was taken out for cell counting. Then the cell suspension was diluted to 1×10^6 cells/mL (20,000 cells per 20 μL per well) in platting medium, and cells were seeded into 384-well cell plates (Greiner-781946). The 384-well cell plate was placed in a 37° C./5% CO2 incubator (Thermo-371, Thermo Scientific) for 16-20 hours.
Preparation of the intracellular calcium imaging agent (Fluo-4 Direct™ Calcium Assay Kit, Invitrogen-F10471, Thermo Scientific): One mL of FLIPR Assay Buffer was added to 77 mg probenecid to make a 250 mM solution, which was used fresh for each day. One vial of Fluo-4 Direct™ crystals was thawed and 10 mL of FLIPR Assay Buffer was added to the vial. 0.2 mL of probenecid was added to each 10 mL vial of Fluo-Direct™ solution, such that the final assay concentration was 2.5 mM. It was vortexed, left to stand >5 min and protected from light. The dye was prepared fresh each day.
Compound Preparation: Compound plates were prepared as follows. First, the test compound was diluted to prepare a 2 mM solution and then 10-point 3-fold serial dilutions were made using ECHO (ECHO 555, LabCyte), then 900 nL was transferred to the compound plate. For all targets, the final top concentration of the test compound was […]. For agonist reference compounds, 10-point and 3-fold serial dilutions were made, then 900 nL was transferred to the assay plate. Then 30 μL of assay buffer was added to the compound plate and then the plate was centrifuged at 1000 rpm for 1 min.
FLIPR Assay: Cell plates were removed from the incubator, to which were added 20 μL 2×Fluo-4 Direct™ solution, then the plates were reincubated in a 5% CO2, 37° C. incubator for 50 min and at RT for 10 min. To run the protocol on the Fluorescent Imaging Plate Reader (FLIPR) TETRA (MD-FT0249, Molecular Devices, Inc.), 10 μL of assay buffer was transferred from the 384-well plate (Greiner-781280) to the cell plates and then the fluorescence signal was read. Then 10 μL of compound solution was transferred from the compound plate to the cell plates and the fluorescence signal was read. The “Max-Min” was calculated, starting from Read 91 to the maximum allowed. For agonists, activation %=(RLU−LC)/(HC−LC)*100, based on the following: RLU=relative light unit, 91 to maximum allowed signal; HC=average signal of the high concentration of agonist; LC=average signal of DMSO well. The data were fitted using GraphPad Prism 5, using the model “log(agonist) vs. response—Variable slope” to determine the EC50 value. The receptor efficacy of the test compound relative to the agonist NECA was calculated as a percentage (%) of the response to […]. Table 10 includes EC50 values for compounds described herein.

Sequence of human adenosine A3 receptor (P0DMS8 whole entry): as above

In the case of `CNC(=O)[C@@]12C[C@@H]1[C@@H](n1cnc3c(N)cc(Cl)nc31)[C@H](O)[C@@H]2O` [Compound 90, (1S,2R,3S,4R,5S)-4-(7-amino-5-chloro-3H-imidazo[4,5-b]pyridin-3-yl)-2,3-dihydroxy-N-methylbicyclo[3.1.0]hexane-1-carboxamide], the pKi [1] was 8.62.

In the case of `O[C@@H]1[C@H](O)[C@@H]2C[C@@H]2[C@H]1n1cnc2c(NC3CCC3)cc(Cl)nc21` [Compound 44, (1R,2R,3S,4R,5S)-4-(5-chloro-7-(cyclobutylamino)-3H-imidazo[4,5-b]pyridin-3-yl)bicyclo[3.1.0]hexane-2,3-diol], the pEC50 (ADORA3) was 7.64, the “Cell Calcium Efficacy (%)” value (ADORA3) was 52% and the pKi [1] was 7.55.

With `CNC(=O)[C@@]12C[C@@H]1[C@@H](n1cnc3c(NCCO)cc(Cl)nc31)[C@H](O)[C@@H]2O` [Compound 91, (1S,2R,3S,4R,5S)-4-(5-chloro-7-((2-hydroxyethyl)amino)-3H-imidazo[4,5-b]pyridin-3-yl)-2,3-dihydroxy-N-methylbicyclo[3.1.0]hexane-1-carboxamide] the pKi [1] was 8.29.

In the case of `CNC(=O)[C@@]12C[C@@H]1[C@@H](n1cnc3c(NCC(F)F)cc(Cl)nc31)[C@H](O)[C@@H]2O` [Compound 82], the pEC50 (ADORA3) was 8.72, the “Cell Calcium Efficacy (%)” value (ADORA3) was 106% and the pKi [1] was 8.32.

With `O[C@@H]1[C@H](O)[C@@H]2C[C@@H]2[C@H]1n1cnc2c(NCC(F)F)c(F)c(Cl)nc21` [Compound 61, (1R,2R,3S,4R,5S)-4-(5-chloro-7-((2,2-difluoroethyl)amino)-6-fluoro-3H-imidazo[4,5-b]pyridin-3-yl)bicyclo[3.1.0]hexane-2,3-diol] the pEC50 (ADORA3) was 7.22, the “Cell Calcium Efficacy (%)” value (ADORA3) was 67.3% and the pKi [1] was 8.15.

For `O[C@@H]1[C@H](O)[C@@H]2C[C@@H]2[C@H]1n1cnc2c(NCC3CCC3)cc(Cl)nc21` [Compound 67, (1R,2R,3S,4R,5S)-4-(5-chloro-7-((cyclobutylmethyl)amino)-3H-imidazo[4,5-b]pyridin-3-yl)bicyclo[3.1.0]hexane-2,3-diol], the pKi [1] was 7.03.

For `O[C@@H]1[C@H](O)[C@@H]2C[C@@H]2[C@H]1n1cnc2c(NCc3cc(F)ccc3F)cc(Cl)nc21` [Compound 45, (1R,2R,3S,4R,5S)-4-(5-chloro-7-((2,5-difluorobenzyl)amino)-3H-imidazo[4,5-b]pyridin-3-yl)bicyclo[3.1.0]hexane-2,3-diol], the pEC50 (ADORA3) was 7.53, the “Cell Calcium Efficacy (%)” value (ADORA3) was 22.5% and the pKi [1] was 8.89.

Compound `CCNc1c(Cl)c(Cl)nc2c1ncn2[C@H]1[C@H](O)[C@H](O)[C@@H]2C[C@@H]21` [Compound 71, (1R,2R,3S,4R,5S)-4-(5,6-dichloro-7-(ethylamino)-3H-imidazo[4,5-b]pyridin-3-yl)bicyclo[3.1.0]hexane-2,3-diol] has a pKi [1] of 6.34.
